The values that follow come from paper PMC7997389 (Biochemical and Biophysical Research Communications, 2021).

Series [1] deals with SARS-CoV-2-GHB-03021/2020. The settings on record: hamster, in vivo.
Series [2] relates to SARS-CoV-2. The note with it: monotherapy; cited from earlier work.
For series [3], the system named is SARS-CoV-2. The settings on record: cited from earlier work.
The target of the next series is human cathepsin L (Homo sapiens, UniProt P07711). Nature of the series: human cathepsin L biochemical assay. The settings on record: 3CLpro versus cathepsin L.
Series [4] has as its system SARS-CoV-2. The note with it: cited from earlier work. The source holds these as a separate data set.
The test system of another series is 3CLpro. The settings on record: cited from earlier work.
Series [5] deals with human alpha-coronavirus 229E. The experiment in a line: organism not typed. The note with it: Huh-7, 96 h, read-out: α-CoV 229E (Huh-7) EC50. It is filed as cell-based.
Series [6] in a line: Cytotoxicity in HeLa cells. The settings on record: human. It is filed as cell-based.

Chain of human cathepsin L (P07711 114-333): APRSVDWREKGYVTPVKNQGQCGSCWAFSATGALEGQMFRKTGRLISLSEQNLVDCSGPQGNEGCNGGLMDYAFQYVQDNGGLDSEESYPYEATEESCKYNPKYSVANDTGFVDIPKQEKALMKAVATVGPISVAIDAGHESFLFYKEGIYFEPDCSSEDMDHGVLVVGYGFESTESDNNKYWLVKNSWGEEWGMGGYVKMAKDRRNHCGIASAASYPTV

`CC(C)C(=O)OC[C@H]1O[C@@H](n2ccc(NO)nc2=O)[C@H](O)[C@@H]1O` [EIDD-2801]: in series [1], the “reduction in viral RNA copies per mg of lung tissue” value turned out to be 2.0 log10 and the “reduction of infectious virus titers in the lungs” value is on record as 4.1 log10 TCID50 per mg.

As for `CC(C)C[C@H](NC(=O)OCc1ccccc1)C(=O)N[C@@H](CC1CCNC1=O)C(O)S(=O)(=O)[O-].[Na+]` (stereo partly shown) [GC-376], the “antiviral effect in a mouse model of SARS-CoV-2 infection” value in the series with SARS-CoV-2 [2] is on record as “failed to show a clear antiviral effect”. Also, the “antiviral activity in the K18-hACE2 SARS-CoV-2 infection mouse model” value in the series on SARS-CoV-2 [3] is “modest antiviral activity”. Further, on human cathepsin L, the “selectivity against human cathepsin L in comparison with ALG-097111” value is “significantly less selective”.

For `CN1CCN(C(=O)N[C@@H](Cc2ccccc2)C(=O)N[C@H](/C=C/S(=O)(=O)c2ccccc2)CCc2ccccc2)CC1` [K117777], the “antiviral effect when TMPRSS2 was expressed” value in the series with SARS-CoV-2 [4] (A549-ACE2 expressing TMPRSS2) was “abolished”. For the same compound, the “inhibition of SARS-CoV-2 in cells” value in the series with SARS-CoV-2 [4] (VeroE6, A549-ACE2 and HeLa-ACE2) was “potent inhibition”. The “inhibitory effect on the 3CLpro” value in the series with 3CLpro was “lacks an inhibitory effect”.

With `CCC(CC)COC(=O)[C@H](C)N[P@](=O)(OC[C@H]1O[C@@](C#N)(c2ccc3c(N)ncnn23)[C@H](O)[C@@H]1O)Oc1ccccc1` [Remdesivir], the 50% effective concentration (EC50) (in general, the concentration at which the effect is half-maximal) in series [5] turned out to be 0.0145 ± 0.00348 µM. Also, the CC50 – broadly, the concentration at which the toxic effect on the cells reaches its halfway point – in series [6] was above 5 µM.
